According to PMC5218480 (PLoS ONE, 2017):

Tested on: MV-4-11 cells
Assay: Gene expression microarray analysis (Affymetrix PrimeView) and GSEA
Assay type: cell-based, human
Set-up: RFU PODN (11730768_x_at) / Fold change /veh PODN (11730768_x_at) / RFU LINC00158 (11744669_a_at) / Fold change /veh LINC00158 (11744669_a_at) / RFU DUSP10 (11751237_a_at) / Fold change /veh DUSP10 (11751237_a_at) / RFU ID3 (11757404_x_at) / Fold change /veh ID3 (11757404_x_at) / RFU PLEKHG5 (11737974_s_at) / Fold change /veh PLEKHG5 (11737974_s_at) / RFU LRRC4B (11730491_at) / Fold change /veh LRRC4B (11730491_at) / RFU GIMAP4 (11747438_a_at) / Fold change /veh GIMAP4 (11747438_a_at) / RFU KRT8 (11758183_x_at) / Fold change /veh KRT8 (11758183_x_at) / RFU CNN1 (11734310_a_at) / Fold change /veh CNN1 (11734310_a_at) / RFU VPS37D (11726825_at) / Fold change /veh VPS37D (11726825_at) / RFU C10orf10 (11716522_x_at) / Fold change /veh C10orf10 (11716522_x_at) / RFU KIR2DL2 /// KIR2DL4 /// KIR2DL5A /// KIR2DL5B /// KIR2DS1 /// KIR2DS2 /// KIR2DS3 /// KIR2DS4 /// KIR3DL3 /// KIR3DL3 /// KIR3DS1 (11738374_at) / Fold change /veh KIR2DL2 /// KIR2DL4 /// KIR2DL5A /// KIR2DL5B /// KIR2DS1 /// KIR2DS2 /// KIR2DS3 /// KIR2DS4 /// KIR3DL3 /// KIR3DL3 /// KIR3DS1 (11738374_at) / RFU C1QL1 (11718748_at) / Fold change /veh C1QL1 (11718748_at) / RFU TMPRSS4 (11747572_a_at) / Fold change /veh TMPRSS4 (11747572_a_at) / RFU HAMP (11756126_x_at) / Fold change /veh HAMP (11756126_x_at) / RFU RNFT2 (11725882_a_at) / Fold change /veh RNFT2 (11725882_a_at) / RFU NR4A2 (11747474_a_at) / Fold change /veh NR4A2 (11747474_a_at) / RFU ABCC12 (11746883_a_at) / Fold change /veh ABCC12 (11746883_a_at) / RFU TMEM136 (11760407_x_at) / Fold change /veh TMEM136 (11760407_x_at) / RFU CLDN22 /// WWC2 (11732394_at) / Fold change /veh CLDN22 /// WWC2 (11732394_at) / RFU HLA-DPB1 (11760878_x_at) / Fold change /veh HLA-DPB1 (11760878_x_at) / RFU SPINT1 (11716480_a_at) / Fold change /veh SPINT1 (11716480_a_at) / RFU GAP43 (11754022_s_at) / Fold change /veh GAP43 (11754022_s_at) / RFU A4GNT (11735810_at) / Fold change /veh A4GNT (11735810_at) / RFU PRB3 (11715151_x_at) / Fold change /veh PRB3 (11715151_x_at) / RFU TUBB4B (11761932_at) / Fold change /veh TUBB4B (11761932_at) / RFU CAPN14 (11732068_a_at) / Fold change /veh CAPN14 (11732068_a_at) / RFU TMCC2 (11721928_a_at) / Fold change /veh TMCC2 (11721928_a_at) / RFU IRGQ (11745062_a_at) / Fold change /veh IRGQ (11745062_a_at) / RFU FAM174B (11720279_a_at) / Fold change /veh FAM174B (11720279_a_at) / RFU TMPRSS4 (11748680_a_at) / Fold change /veh TMPRSS4 (11748680_a_at) / RFU FAM212B (11763350_a_at) / Fold change /veh FAM212B (11763350_a_at) / RFU PLEKHG5 (11743358_a_at) / Fold change /veh PLEKHG5 (11743358_a_at) / RFU ZSCAN30 (11745921_a_at) / Fold change /veh ZSCAN30 (11745921_a_at) / RFU CMKLR1 (11741424_a_at) / Fold change /veh CMKLR1 (11741424_a_at) / RFU LOC101060620 /// MAPK8IP1 (11723275_at) / Fold change /veh LOC101060620 /// MAPK8IP1 (11723275_at) / RFU SPTSSB (11747773_x_at) / Fold change /veh SPTSSB (11747773_x_at) / RFU PRSS12 (11739890_at) / Fold change /veh PRSS12 (11739890_at) / RFU BIN1 (11741810_x_at) / Fold change /veh BIN1 (11741810_x_at) / RFU WNT11 (11732464_a_at) / Fold change /veh WNT11 (11732464_a_at) / RFU C10orf10 (11716521_a_at) / Fold change /veh C10orf10 (11716521_a_at) / RFU C5orf56 (11738089_at) / Fold change /veh C5orf56 (11738089_at) / RFU CYB561 (11721691_x_at) / Fold change /veh CYB561 (11721691_x_at) / RFU ANKRD19P (11752326_a_at) / Fold change /veh ANKRD19P (11752326_a_at) / RFU OR2T12 /// OR2T33 /// OR2T8 (11738714_s_at) / Fold change /veh OR2T12 /// OR2T33 /// OR2T8 (11738714_s_at) / RFU VCAN (11748164_a_at) / Fold change /veh VCAN (11748164_a_at) / RFU JSRP1 (11732532_at) / Fold change /veh JSRP1 (11732532_at) / RFU KRTAP10-11 (11738290_x_at) / Fold change /veh KRTAP10-11 (11738290_x_at) / RFU MYO3A (11730013_a_at) / Fold change /veh MYO3A (11730013_a_at) / RFU EBF3 (11725865_a_at) / Fold change /veh EBF3 (11725865_a_at) / RFU CAMK2N1 (11719241_x_at) / Fold change /veh CAMK2N1 (11719241_x_at) / RFU C5orf56 (11738088_a_at) / Fold change /veh C5orf56 (11738088_a_at) / RFU OLFML3 (11715873_a_at) / Fold change /veh OLFML3 (11715873_a_at) / RFU LOC100653217 /// NTM (11731650_a_at) / Fold change /veh LOC100653217 /// NTM (11731650_a_at) / RFU MAPK11 (11762145_a_at) / Fold change /veh MAPK11 (11762145_a_at) / RFU FIZ1 (11724087_x_at) / Fold change /veh FIZ1 (11724087_x_at) / RFU OASL (11726364_x_at) / Fold change /veh OASL (11726364_x_at) / RFU SOX15 (11748057_x_at) / Fold change /veh SOX15 (11748057_x_at) / RFU CD79A (11719716_a_at) / Fold change /veh CD79A (11719716_a_at) / RFU HIST1H1D (11736915_at) / Fold change /veh HIST1H1D (11736915_at) / RFU CASKIN2 (11723855_a_at) / Fold change /veh CASKIN2 (11723855_a_at) / RFU LOC730098 (11760151_x_at) / Fold change /veh LOC730098 (11760151_x_at) / RFU OR4N2 (11742367_at) / Fold change /veh OR4N2 (11742367_at) / RFU PRRT2 (11749266_a_at) / Fold change /veh PRRT2 (11749266_a_at) / RFU SNX32 (11753110_a_at) / Fold change /veh SNX32 (11753110_a_at) / RFU CDHR5 (11726645_a_at) / Fold change /veh CDHR5 (11726645_a_at) / RFU RCAN1 (11760418_a_at) / Fold change /veh RCAN1 (11760418_a_at) / RFU FAM167A (11723789_a_at) / Fold change /veh FAM167A (11723789_a_at) / RFU FAM26E (11764081_at) / Fold change /veh FAM26E (11764081_at) / RFU ISYNA1 (11749810_s_at) / Fold change /veh ISYNA1 (11749810_s_at) / RFU ACY1 (11761880_at) / Fold change /veh ACY1 (11761880_at) / RFU 11764098_at / Fold change /veh 11764098_at / RFU SAMD14 (11745864_x_at) / Fold change /veh SAMD14 (11745864_x_at) / RFU NPB (11741838_a_at) / Fold change /veh NPB (11741838_a_at) / RFU TMPRSS6 (11731388_a_at) / Fold change /veh TMPRSS6 (11731388_a_at) / RFU KRTAP10-2 (11738614_at) / Fold change /veh KRTAP10-2 (11738614_at) / RFU ARHGAP8 /// PRR5-ARHGAP8 (11727945_x_at) / Fold change /veh ARHGAP8 /// PRR5-ARHGAP8 (11727945_x_at) / RFU KRTAP5-7 /// NADSYN1 (11734609_at) / Fold change /veh KRTAP5-7 /// NADSYN1 (11734609_at) / RFU RASL12 (11751679_a_at) / Fold change /veh RASL12 (11751679_a_at) / RFU CDKN2B (11736163_a_at) / Fold change /veh CDKN2B (11736163_a_at) / RFU PRF1 (11729649_at) / Fold change /veh PRF1 (11729649_at) / RFU, ZNF638 /// ZNF638-IT1 / Fold change vs veh, ZNF638 /// ZNF638-IT1 / RFU, PANK3 / Fold change vs veh, PANK3 / RFU, SH3YL1 / Fold change vs veh, SH3YL1 / RFU, ZEB2 / Fold change vs veh, ZEB2 / RFU, NRIP1 / Fold change vs veh, NRIP1 / RFU, PTTG1IP / Fold change vs veh, PTTG1IP / RFU, CAPN2 / Fold change vs veh, CAPN2 / RFU, MED14 / Fold change vs veh, MED14 / RFU, SNORA58 / Fold change vs veh, SNORA58 / RFU, C1orf63 / Fold change vs veh, C1orf63 / RFU, LRRFIP1 / Fold change vs veh, LRRFIP1 / RFU, NDUFAF7 / Fold change vs veh, NDUFAF7 / RFU, SLC12A2 / Fold change vs veh, SLC12A2 / RFU, IBTK / Fold change vs veh, IBTK / RFU, ESF1 / Fold change vs veh, ESF1 / Fold change vs veh, TMEM50B / RFU, TAOK1 / Fold change vs veh, TAOK1 / RFU, ACBD3 / Fold change vs veh, ACBD3 / RFU, TMA16 / Fold change vs veh, TMA16 / RFU, RWDD3 / Fold change vs veh, RWDD3 / RFU, BCAT1 / Fold change vs veh, BCAT1 / RFU, EDEM3 / Fold change vs veh, EDEM3 / RFU, TMEM33 / Fold change vs veh, TMEM33 / RFU, WDR75 / Fold change vs veh, WDR75 / RFU, AHCTF1 / Fold change vs veh, AHCTF1 / RFU, TFRC / Fold change vs veh, TFRC / RFU, ZDHHC17 / Fold change vs veh, ZDHHC17 / RFU, NOM1 / Fold change vs veh, NOM1 / RFU, ARL8B / Fold change vs veh, ARL8B / RFU, ZBTB11 / Fold change vs veh, ZBTB11 / RFU, TAMM41 / Fold change vs veh, TAMM41 / RFU, KIAA1704 /// LOC100996395 / Fold change vs veh, KIAA1704 /// LOC100996395 / RFU, ING1 / Fold change vs veh, ING1 / RFU, TRMT61B / Fold change vs veh, TRMT61B / RFU, FUBP3 / Fold change vs veh, FUBP3 / RFU, TP53 / Fold change vs veh, TP53 / RFU, TNKS2 / Fold change vs veh, TNKS2 / RFU, ZFP14 / Fold change vs veh, ZFP14 / RFU, ACTR2 / Fold change vs veh, ACTR2 / RFU, PPP3R1 / Fold change vs veh, PPP3R1 / RFU, PIK3R1 / Fold change vs veh, PIK3R1 / RFU, HNRNPA1 / Fold change vs veh, HNRNPA1 / RFU, RNF170 / Fold change vs veh, RNF170 / RFU, ZNF28 / Fold change vs veh, ZNF28 / RFU, RNGTT / Fold change vs veh, RNGTT / RFU, OGT / Fold change vs veh, OGT / RFU, BRD1 / Fold change vs veh, BRD1 / RFU, MARS / Fold change vs veh, MARS / RFU, ZNF655 / Fold change vs veh, ZNF655 / RFU, FAHD1 / Fold change vs veh, FAHD1 / RFU, BDP1 / Fold change vs veh, BDP1 / RFU, LRRCC1 / Fold change vs veh, LRRCC1 / RFU, ARID1A / Fold change vs veh, ARID1A / RFU, ZNF146 / Fold change vs veh, ZNF146 / RFU, ZNF330 / Fold change vs veh, ZNF330 / RFU, GPN3 / Fold change vs veh, GPN3 / RFU, C9orf123 / Fold change vs veh, C9orf123 / RFU, N4BP2L2 / Fold change vs veh, N4BP2L2 / RFU, ARFIP1 / Fold change vs veh, ARFIP1 / RFU, FAM179B / Fold change vs veh, FAM179B / RFU, BCL10 / Fold change vs veh, BCL10 / RFU, UHRF1BP1L / Fold change vs veh, UHRF1BP1L / RFU, BET1 / Fold change vs veh, BET1 / RFU, CNOT2 / Fold change vs veh, CNOT2 / RFU, ZNF268 / Fold change vs veh, ZNF268 / Fold change vs veh, ZNF507 / RFU, DGCR2 / Fold change vs veh, DGCR2 / RFU, WDSUB1 / Fold change vs veh, WDSUB1 / Fold change vs veh, HSP90B1 /// MIR3652 / RFU, ADSS / Fold change vs veh, ADSS / RFU, GK / Fold change vs veh, GK / RFU, ZNF148 / Fold change vs veh, ZNF148 / RFU, TAF9 / Fold change vs veh, TAF9 / RFU, SLC1A5 / Fold change vs veh, SLC1A5 / RFU, SLMO2 / Fold change vs veh, SLMO2 / RFU, ABCC4 / Fold change vs veh, ABCC4 / RFU, LOC101060439 /// RAP1B / Fold change vs veh, LOC101060439 /// RAP1B / RFU, RFX7 / Fold change vs veh, RFX7 / RFU, GTPBP10 / Fold change vs veh, GTPBP10 / RFU, CNEP1R1 / Fold change vs veh, CNEP1R1 / RFU, BIVM-ERCC5 /// ERCC5 / Fold change vs veh, BIVM-ERCC5 /// ERCC5 / RFU, ILF3 / Fold change vs veh, ILF3 / RFU 11762660_at / Fold change /veh 11762660_at / RFU VCAN (11757783_s_at) / Fold change /veh VCAN (11757783_s_at) / RFU DDX43 (11728927_at) / Fold change /veh DDX43 (11728927_at) / RFU KRT8 (11758188_x_at) / Fold change /veh KRT8 (11758188_x_at) / RFU NKD1 (11759106_at) / Fold change /veh NKD1 (11759106_at) / RFU SRD5A1 (11742802_a_at) / Fold change /veh SRD5A1 (11742802_a_at) / RFU TPSAB1 /// TPSB2 (11721975_s_at) / Fold change /veh TPSAB1 /// TPSB2 (11721975_s_at) / RFU GSTM3 (11746129_a_at) / Fold change /veh GSTM3 (11746129_a_at) / RFU IL23R (11737362_x_at) / Fold change /veh IL23R (11737362_x_at) / RFU TMEM51 (11727254_a_at) / Fold change /veh TMEM51 (11727254_a_at) / RFU PIWIL2 (11732686_x_at) / Fold change /veh PIWIL2 (11732686_x_at) / RFU ORM1 (11744905_x_at) / Fold change /veh ORM1 (11744905_x_at) / RFU CCDC152 (11743942_at) / Fold change /veh CCDC152 (11743942_at) / RFU ECM1 (11717891_a_at) / Fold change /veh ECM1 (11717891_a_at) / RFU IL23R (11748794_a_at) / Fold change /veh IL23R (11748794_a_at) / RFU TNFAIP8L3 (11732012_x_at) / Fold change /veh TNFAIP8L3 (11732012_x_at) / RFU MBOAT4 (11741988_at) / Fold change /veh MBOAT4 (11741988_at) / RFU 11764193_at / Fold change /veh 11764193_at / RFU TMEM53 (11763286_at) / Fold change /veh TMEM53 (11763286_at) / RFU MAGEB2 (11727129_at) / Fold change /veh MAGEB2 (11727129_at) / RFU TMEM200A (11744735_a_at) / Fold change /veh TMEM200A (11744735_a_at) / RFU CCDC152 (11751479_a_at) / Fold change /veh CCDC152 (11751479_a_at) / RFU FAM211A (11726209_a_at) / Fold change /veh FAM211A (11726209_a_at) / RFU RGS16 (11746705_a_at) / Fold change /veh RGS16 (11746705_a_at) / RFU VCAN (11755009_s_at) / Fold change /veh VCAN (11755009_s_at) / RFU RHOB (11743442_s_at) / Fold change /veh RHOB (11743442_s_at) / RFU RGS16 (11720943_a_at) / Fold change /veh RGS16 (11720943_a_at) / RFU RGS16 (11720944_at) / Fold change /veh RGS16 (11720944_at) / RFU, VPS4B / Fold change vs veh, VPS4B / RFU, CREB1 / Fold change vs veh, CREB1 / RFU, DNAJC13 / Fold change vs veh, DNAJC13 / RFU, GNAQ / Fold change vs veh, GNAQ / RFU, CDK5R1 / Fold change vs veh, CDK5R1 / RFU, ZRANB3 / Fold change vs veh, ZRANB3 / RFU, CUL4A / Fold change vs veh, CUL4A / RFU, CCNY / Fold change vs veh, CCNY / RFU, UFL1 / Fold change vs veh, UFL1 / RFU, COG3 / Fold change vs veh, COG3 / RFU, DIAPH2 / Fold change vs veh, DIAPH2 / RFU, SKA2 / Fold change vs veh, SKA2 / RFU, AFF3 / Fold change vs veh, AFF3 / RFU, LMF1 / Fold change vs veh, LMF1 / RFU, IPO11 / Fold change vs veh, IPO11 / RFU, DFFB / Fold change vs veh, DFFB / RFU, FOXP1 / Fold change vs veh, FOXP1 / RFU, CARD8 / Fold change vs veh, CARD8 / RFU, STRN3 / Fold change vs veh, STRN3 / RFU, ADK / Fold change vs veh, ADK / RFU, RASSF2 / Fold change vs veh, RASSF2 / RFU, WIPF1 / Fold change vs veh, WIPF1 / RFU, LARP1B / Fold change vs veh, LARP1B / RFU, RASA1 / Fold change vs veh, RASA1 / RFU, RB1 / Fold change vs veh, RB1 / RFU, PPFIA1 / Fold change vs veh, PPFIA1 / RFU, MAT2A / Fold change vs veh, MAT2A / RFU, CCT5 / Fold change vs veh, CCT5 / RFU, WDR92 / Fold change vs veh, WDR92 / RFU, CUX1 / Fold change vs veh, CUX1 / RFU, TTC7A / Fold change vs veh, TTC7A / RFU, TMEM135 / Fold change vs veh, TMEM135 / RFU, DEPTOR / Fold change vs veh, DEPTOR / RFU, CPM / Fold change vs veh, CPM / RFU, DNAJB6 / Fold change vs veh, DNAJB6 / RFU, CACNA2D3 / Fold change vs veh, CACNA2D3 / RFU, DTX4 / Fold change vs veh, DTX4 / RFU, TFCP2 / Fold change vs veh, TFCP2 / RFU, GMCL1 /// GMCL1P1 / Fold change vs veh, GMCL1 /// GMCL1P1 / RFU, AEBP2 / Fold change vs veh, AEBP2 / RFU, SNHG1 /// SNORD22 /// SNORD25 /// SNORD26 /// SNORD27 /// SNORD28 /// SNORD29 /// SNORD31 / Fold change vs veh, SNHG1 /// SNORD22 /// SNORD25 /// SNORD26 /// SNORD27 /// SNORD28 /// SNORD29 /// SNORD31 / Fold change (Aza/veh), C12orf56 (ProbeSet 11735607_a_at) / Fold change (ACY-1035/veh), C12orf56 (ProbeSet 11735607_a_at) / Fold change (Aza/veh), FGFR1OP (ProbeSet 11751329_s_at) / Fold change (ACY-1035/veh), FGFR1OP (ProbeSet 11751329_s_at) / Fold change (Aza/veh), VPS36 (ProbeSet 11739960_a_at) / Fold change (ACY-1035/veh), VPS36 (ProbeSet 11739960_a_at) / RFU SYPL1 (11715823_x_at) / Fold change /veh SYPL1 (11715823_x_at) / RFU IGFBP7 (11715501_s_at) / Fold change /veh IGFBP7 (11715501_s_at) / RFU REEP3 (11722064_at) / Fold change /veh REEP3 (11722064_at) / RFU IGLL1 (11728026_x_at) / Fold change /veh IGLL1 (11728026_x_at): dose or concentration left out as unconfirmed
Settings: MV-4-11 cells, 48 hours

## Nc1ncn([C@@H]2O[C@H](CO)[C@@H](O)[C@H]2O)c(=O)n1 [azacitidine]
  Fold change /veh HAMP (11756126_x_at): 0.87
